Read-outs that look alike come from different tables or passages of the source.
Key:
IRAK4 [1] = molecular target: T1, IRAK4 (Homo sapiens, UniProt Q9NWZ3); test: Degradation of IRAK4 in SU-DHL-2 cells (flow cytometry); assay type: cell-based; design: The degradation level of IRAK4 protein in SU-DHL-2 cell line by the compounds was detected by flow cytometry; endogenous in cells; host or cells: SU-DHL-2; OCI-LY3
T1 sequence (Q9NWZ3 1-460): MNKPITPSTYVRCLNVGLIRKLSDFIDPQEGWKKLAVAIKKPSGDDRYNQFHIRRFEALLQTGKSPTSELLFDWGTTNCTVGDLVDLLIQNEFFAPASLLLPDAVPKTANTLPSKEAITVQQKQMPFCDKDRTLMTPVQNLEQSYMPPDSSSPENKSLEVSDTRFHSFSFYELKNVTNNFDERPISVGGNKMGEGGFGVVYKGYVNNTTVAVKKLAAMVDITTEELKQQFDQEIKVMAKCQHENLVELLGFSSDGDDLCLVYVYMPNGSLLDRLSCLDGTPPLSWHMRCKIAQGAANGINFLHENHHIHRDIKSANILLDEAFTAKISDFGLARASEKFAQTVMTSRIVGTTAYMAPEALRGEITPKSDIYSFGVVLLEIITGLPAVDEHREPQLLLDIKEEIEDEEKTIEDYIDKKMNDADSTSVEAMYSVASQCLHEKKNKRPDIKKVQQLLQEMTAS
Procedure: The degradation level of IRAK4 protein in SU-DHL-2 cell line by the compounds was detected by flow cytometry.
Step 2: On day 1, the cells were seeded at a density of 2 × 10^5 cells per well in 100 µL in a 96-well plate. The compounds were dissolved in DMSO to a final concentration of 10 mM, and then diluted with culture medium at a 1:5 concentration gradient to prepare 10 concentrations. The diluted solutions were added to the cells to obtain a maximum final concentration of 2 µM. Wells containing cells treated with 0.1% DMSO served as the […] The cells were incubated at 37°C in a 5% CO2 incubator for 24 hours.
Step 3: After centrifugation, the cells were washed with FACS buffer. The cells were stained for viability discrimination using the LIVE/DEAD™ Fixable Blue Dead Cell Stain Kit, and surface staining of monocytes was performed with PE Mouse Anti-Human CD14, followed by incubation at 4°C for 30 minutes.
Step 4: After centrifugation, the cells were washed with FACS buffer. Fix buffer I, equal in volume to the cultured cells, was added, and the cells were fixed at 37°C for 10 minutes.
Step 5: After centrifugation, the cells were washed with FACS buffer. 150 µL of Perm III reagent was added, and the cells were incubated at 4°C for 30 minutes to permeabilize the membranes. After centrifugation, the cells were washed with FACS buffer.
Flow cytometry analysis was performed using a flow cytometer.
The flow cytometry data were analyzed using Flowjo software. Data presentation and DC50 (half-maximal degradation concentration) calculation were performed using Prism 8.0.2 (GraphPad).

IRAK4 [2] = molecular target: T1, IRAK4; assay type: cell-based; design: endogenous in cells; host or cells: OCI-LY3; conditions: read-out: OCI-LY3 DC50
[3] = read-out: SU-DHL-2 DC50; SU-DHL-2 cells, 24 hours incubation
[4] = SU-DHL-2 cells, 24 hours incubation; read-out: SU-DHL-2 DC50

`Cn1c(=O)n(C2CCC(=O)NC2=O)c2cccc(C#CCOCC(=O)N3CCC4(CC3)CC(n3cc(NC(=O)c5cnn6ccc(N7C[C@H]8C[C@@H]7CO8)nc56)c(C(F)F)n3)C4)c21` (some centres unmarked) [Example 12] gave a DC50 (IRAK4 [1]; [3]) of 5 nM and a DC50 (IRAK4 [2]; OCI-LY3 cells) of 5 nM.

`Cn1c(=O)n(C2CCC(=O)NC2=O)c2cccc(C#CCCC(=O)N3CCC4(CC3)CC(n3cc(NC(=O)c5cnn6ccc(N7C[C@H]8C[C@@H]7CO8)nc56)c(C(F)F)n3)C4)c21` (some centres unmarked) [Example 24] was tested, and the DC50 (IRAK4 [1]; [4]) was 4 nM and the DC50 (IRAK4 [2]; OCI-LY3 cells) was 3 nM.

`Cn1c(=O)n(C2CCC(=O)NC2=O)c2cccc(C#CCO[C@H]3C[C@H](CN4CCC5(CC4)CC(n4cc(NC(=O)c6cnn7ccc(N8C[C@H]9C[C@@H]8CO9)nc67)c(C(F)F)n4)C5)C3)c21` (some centres unmarked) [Example 29] was tested, and the DC50 (IRAK4 [1]; [3]) was 3 nM and the DC50 (IRAK4 [2]; OCI-LY3 cells) was 1 nM.

Work on `Cn1c(=O)n(C2CCC(=O)NC2=O)c2cccc(C#CCOCC3CC(N4CCC5(CC4)CC(n4cc(NC(=O)c6cnn7ccc(N8C[C@H]9C[C@@H]8CO9)nc67)c(C(F)F)n4)C5)C3)c21` (some centres unmarked) [Example 9] yielded a DC50 (IRAK4 [1]; [4]) of 2.7 nM and a DC50 (IRAK4 [2]; OCI-LY3 cells) of 2.3 nM.

In the case of `Cn1c(=O)n(C2CCC(=O)NC2=O)c2cccc(C#CCOCCC(=O)N3CCC4(CC3)CC(n3cc(NC(=O)c5cnn6ccc(N7C[C@H]8C[C@@H]7CO8)nc56)c(C(F)F)n3)C4)c21` (some centres unmarked) [Example 8], the DC50 (IRAK4 [1]; [3]) is reported as 4 nM and the DC50 (IRAK4 [2]; OCI-LY3 cells) is reported as 2 nM.

Work on `Cn1c(=O)n(C2CCC(=O)NC2=O)c2cccc(C#CCOCCCN3CCC4(CC3)CC(n3cc(NC(=O)c5cnn6ccc(N7C[C@H]8C[C@@H]7CO8)nc56)c(C(F)F)n3)C4)c21` (some centres unmarked) [Example 2] yielded a DC50 (IRAK4 [1]; read-out: SU-DHL-2 DC50) of 1.1 nM and a DC50 (IRAK4 [2]) of 0.4 nM.

Compound `Cn1c(=O)n(C2CCC(=O)NC2=O)c2cccc(C#CCOc3ccc(CN4CCC5(CC4)CC(n4cc(NC(=O)c6cnn7ccc(N8C[C@H]9C[C@@H]8CO9)nc67)c(C(F)F)n4)C5)cc3)c21` (some centres unmarked) [Example 57] has a DC50 (IRAK4 [1]; read-out: SU-DHL-2 DC50) of 22 nM.

With `Cn1c(=O)n(C2CCC(=O)NC2=O)c2cccc(C#CCCCN3CCC4(CC3)CC(n3cc(NC(=O)c5cnn6ccc(N7C[C@H]8C[C@@H]7CO8)nc56)c(C(F)F)n3)C4)c21` (some centres unmarked) [Example 17] the DC50 (IRAK4 [1]; [4]) was 1 nM and the DC50 (IRAK4 [2]; OCI-LY3 cells) was 1 nM.

For `Cn1c(=O)n(C2CCC(=O)NC2=O)c2cccc(C#CCO[C@H]3CC[C@H](C(=O)N4CCC5(CC4)CC(n4cc(NC(=O)c6cnn7ccc(N8C[C@H]9C[C@@H]8CO9)nc67)c(C(F)F)n4)C5)CC3)c21` (some centres unmarked) [Example 71], the DC50 (IRAK4 [1]; read-out: SU-DHL-2 DC50) was 5 nM.

Compound `Cn1c(=O)n(C2CCC(=O)NC2=O)c2cccc(C#CC(C)(C)C(=O)N3CCC4(CC3)CC(n3cc(NC(=O)c5cnn6ccc(N7C[C@H]8C[C@@H]7CO8)nc56)c(C(F)F)n3)C4)c21` (some centres unmarked) [Example 70] has a DC50 (IRAK4 [1]; read-out: SU-DHL-2 DC50) of 16 nM.

`Cn1c(=O)n(C2CCC(=O)NC2=O)c2cccc(C#CCOCCN3CCC4(CC3)CC(n3cc(NC(=O)c5cnn6ccc(N7C[C@H]8C[C@@H]7CO8)nc56)c(C(F)F)n3)C4)c21` (some centres unmarked) [Example 1] was tested, and the DC50 (IRAK4 [1]; [4]) was 1.4 nM and the DC50 (IRAK4 [2]; OCI-LY3 cells) was 0.4 nM.

With `COc1cc2nn(C3CCC4(CC3)CCN(CC3CCN(c5ccc6c(c5)C(=O)N(C5CCC(=O)NC5=O)C6=O)CC3)CC4)cc2cc1C(=O)Nc1cnc2cccnn12` (centres unmarked) [Example 47] the DC50 (IRAK4 [1]; read-out: SU-DHL-2 DC50) was 0.5 nM.

`Cn1c(=O)n(C2CCC(=O)NC2=O)c2cccc(C#CCOCC3(C(=O)N4CCC5(CC4)CC(n4cc(NC(=O)c6cnn7ccc(N8C[C@H]9C[C@@H]8CO9)nc67)c(C(F)F)n4)C5)CC3)c21` (some centres unmarked) [Example 7] was tested, and the DC50 (IRAK4 [1]; [3]) was 12 nM and the DC50 (IRAK4 [2]; OCI-LY3 cells) was 10 nM.

`Cn1c(=O)n(C2CCC(=O)NC2=O)c2cccc(C#CCOCC(C)(C)C(=O)N3CCC4(CC3)CC(n3cc(NC(=O)c5cnn6ccc(N7C[C@H]8C[C@@H]7CO8)nc56)c(C(F)F)n3)C4)c21` (some centres unmarked) [Example 5] showed a DC50 (IRAK4 [1]; [3]) of 27 nM and a DC50 (IRAK4 [2]; OCI-LY3 cells) of 28 nM.

`COc1cc2nn(C3CCC4(CC3)CCN(C3CC(OCC#Cc5cccc6c5n(C)c(=O)n6C5CCC(=O)NC5=O)C3)CC4)cc2cc1C(=O)Nc1cnc2cccnn12` (centres unmarked) [Example 64] showed a DC50 (IRAK4 [1]; read-out: SU-DHL-2 DC50) of 1 nM.

For `Cn1c(=O)n(C2CCC(=O)NC2=O)c2cccc(C#CCOC3CCN(CC4CCC5(CC4)CC(n4cc(NC(=O)c6cnn7ccc(N8C[C@H]9C[C@@H]8CO9)nc67)c(C(F)F)n4)C5)CC3)c21` (some centres unmarked) [Example 61], the DC50 (IRAK4 [1]; read-out: SU-DHL-2 DC50) was 4 nM.

`Cn1c(=O)n(C2CCC(=O)NC2=O)c2cccc(C#CCN3CCC(CN4CCC5(CC4)CC(n4cc(NC(=O)c6cnn7ccc(N8C[C@H]9C[C@@H]8CO9)nc67)c(C(F)F)n4)C5)CC3)c21` (some centres unmarked) [Example 3] showed a DC50 (IRAK4 [1]; read-out: SU-DHL-2 DC50) of 11 nM and a DC50 (IRAK4 [2]) of 8 nM.

`Cn1c(=O)n(C2CCC(=O)NC2=O)c2cccc(C#CC(C)(C)N3CCC(CN4CCC5(CC4)CC(n4cc(NC(=O)c6cnn7ccc(N8C[C@H]9C[C@@H]8CO9)nc67)c(C(F)F)n4)C5)CC3)c21` (some centres unmarked) [Example 34] showed a DC50 (IRAK4 [1]; read-out: SU-DHL-2 DC50) of 21 nM.

`Cn1c(=O)n(C2CCC(=O)NC2=O)c2cccc(C#CCOC(C)(C)C(=O)N3CCC4(CC3)CC(n3cc(NC(=O)c5cnn6ccc(N7C[C@H]8C[C@@H]7CO8)nc56)c(C(F)F)n3)C4)c21` (some centres unmarked) [Example 10] showed a DC50 (IRAK4 [1]; [3]) of 17 nM and a DC50 (IRAK4 [2]; OCI-LY3 cells) of 13 nM.

With `Cn1c(=O)n(C2CCC(=O)NC2=O)c2cccc(C#CCO[C@H]3C[C@@H](CN4CCC5(CC4)CC(n4cc(NC(=O)c6cnn7ccc(N8C[C@H]9C[C@@H]8CO9)nc67)c(C(F)F)n4)C5)C3)c21` (some centres unmarked) [Example 30] the DC50 (IRAK4 [1]; [3]) was 3 nM and the DC50 (IRAK4 [2]; OCI-LY3 cells) was 1 nM.

For `Cn1c(=O)n(C2CCC(=O)NC2=O)c2cccc(C#CCOC3CCN(CC4CCC5(CC4)CCC(n4cc(NC(=O)c6cnn7ccc(N8C[C@H]9C[C@@H]8CO9)nc67)c(C(F)F)n4)CC5)CC3)c21` (some centres unmarked) [Example 68], the DC50 (IRAK4 [1]; read-out: SU-DHL-2 DC50) was 24 nM.

In the case of `Cn1c(=O)n(C2CCC(=O)NC2=O)c2cccc(C#CCOC[C@H]3C[C@H]3CN3CCC4(CC3)CC(n3cc(NC(=O)c5cnn6ccc(N7C[C@H]8C[C@@H]7CO8)nc56)c(C(F)F)n3)C4)c21` (relative stereo) [Example 44], the DC50 (IRAK4 [1]; [4]) is reported as 5.4 nM.

`Cn1c(=O)n(C2CCC(=O)NC2=O)c2cccc(C#CCOCCCCN3CCC4(CC3)CC(n3cc(NC(=O)c5cnn6ccc(N7C[C@H]8C[C@@H]7CO8)nc56)c(C(F)F)n3)C4)c21` (some centres unmarked) [Example 4] showed a DC50 (IRAK4 [1]; read-out: SU-DHL-2 DC50) of 8 nM and a DC50 (IRAK4 [2]) of 5 nM.

`Cn1c(=O)n(C2CCC(=O)NC2=O)c2cccc(C#CCCCCN3CCC4(CC3)CC(n3cc(NC(=O)c5cnn6ccc(N7C[C@H]8C[C@@H]7CO8)nc56)c(C(F)F)n3)C4)c21` (some centres unmarked) [Example 15] gave a DC50 (IRAK4 [1]; [4]) of 5 nM and a DC50 (IRAK4 [2]; OCI-LY3 cells) of 1.5 nM.

Work on `Cn1c(=O)n(C2CCC(=O)NC2=O)c2cccc(C#CCN3CCC(CN4CCC5(CC4)CC(n4cc(NC(=O)c6cnn7ccc(N8C[C@H]9C[C@@H]8CO9)nc67)c(C(F)F)n4)C5)CC3=O)c21` (some centres unmarked) [Example 62] yielded a DC50 (IRAK4 [1]; read-out: SU-DHL-2 DC50) of 1.2 nM.

For `Cn1c(=O)n(C2CCC(=O)NC2=O)c2cccc(C#CCOC3CCC(CN4CCC5(CCC(n6cc(NC(=O)c7cnn8ccc(N9C[C@H]%10C[C@@H]9CO%10)nc78)c(C(F)F)n6)CC5)CC4)CC3)c21` (some centres unmarked) [Example 46], the DC50 (IRAK4 [1]; [4]) was 13 nM.

Reference: patent EP4656640A1, “IRAK4 DEGRADER AND USE THEREOF” (Shanghai Qilu Pharmaceutical Research and Development …, priority 2023, dated 2024)
